What was measured:
[1] = test system: normal NK cells expanded with K562-aAPC; assay: percent inhibition of viability; higher = more inhibition; settings: 72 h, IL-2 2.5 ng/mL
Procedure: (§1)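 Drug sensitivity and resistance testing on K562-aAPC-expanded normal NK cells: 5 concentrations (10-fold steps over a 10,000-fold range), 72 h at 37 °C, viability by CellTiter-Glo normalised to DMSO and benzethonium chloride controls; DSS from the fitted curve.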

NKL (IL-2 2.5 ng/mL) [2] = assay: drug sensitivity score (DSS) (DSS units); higher = more sensitive; extreme values may be limits of the assay; settings: 72 h
NK-YS (IL-2 2.5 ng/mL) [3] = assay: as above; settings: 72 h
[4] = test system: normal primary NK cells, pool 1 (3 donors) (IL-2 2.5 ng/mL); assay: as above; settings: 72 h
DERL-7 (IL-2 2.5 ng/mL) [5] = assay: as above; settings: 72 h
[6] = test system: normal primary NK cells, pool 2 (3 donors) (IL-2 2.5 ng/mL); assay: as above; settings: 72 h
[7] = test system: normal primary NK cells, pool 3 (3 donors) (IL-2 2.5 ng/mL); assay: as above; settings: 72 h
[8] = test system: normal primary NK cells, pool 1 (3 donors), resting (IL-2 0 ng/mL); assay: as above; settings: 72 h
KAI3 (IL-2 2.5 ng/mL) [9] = assay: as above; settings: 72 h
YT (IL-2 2.5 ng/mL) [10] = assay: as above; settings: 72 h
SNK-6 (IL-2 2.5 ng/mL) [11] = assay: as above; settings: 72 h
KHYG-1 (IL-2 2.5 ng/mL) [12] = assay: as above; settings: 72 h
NK-92 (IL-2 2.5 ng/mL) [13] = assay: as above; settings: 72 h
IMC-1 (IL-2 20 ng/mL) [14] = assay: as above; settings: 72 h
NKL (IL-2 2.5 ng/mL) [15] = assay: percent inhibition of viability; higher = more inhibition; settings: 72 h
NK-YS (IL-2 2.5 ng/mL) [16] = assay: as above; settings: 72 h
[17] = test system: normal primary NK cells, pool 1 (3 donors) (IL-2 2.5 ng/mL); assay: as above; settings: 72 h
DERL-7 (IL-2 2.5 ng/mL) [18] = assay: as above; settings: 72 h
[19] = test system: normal primary NK cells, pool 2 (3 donors) (IL-2 2.5 ng/mL); assay: as above; settings: 72 h
[20] = test system: normal primary NK cells, pool 3 (3 donors) (IL-2 2.5 ng/mL); assay: as above; settings: 72 h
[21] = test system: normal primary NK cells, pool 1 (3 donors), resting (IL-2 0 ng/mL); assay: as above; settings: 72 h
KAI3 (IL-2 2.5 ng/mL) [22] = assay: as above; settings: 72 h
YT (IL-2 2.5 ng/mL) [23] = assay: as above; settings: 72 h
SNK-6 (IL-2 2.5 ng/mL) [24] = assay: as above; settings: 72 h
KHYG-1 (IL-2 2.5 ng/mL) [25] = assay: as above; settings: 72 h
NK-92 (IL-2 2.5 ng/mL) [26] = assay: as above; settings: 72 h
IMC-1 (IL-2 20 ng/mL) [27] = assay: as above; settings: 72 h
[28] = test system: normal NK cells expanded with K562-aAPC; assay: drug sensitivity score (DSS) (DSS units); higher = more sensitive; extreme values may be limits of the assay; settings: 72 h; IL-2 2.5 ng/mL
Procedure: as §1

C=C(c1ccc(C(=O)O)cc1)c1cc2c(cc1C)C(C)(C)CCC2(C)C [Bexarotene] (max concentration tested 10000 nM)
percent inhibition of viability [%]
Settings | 1 nM | 10 nM | 100 nM | 1000 nM | 10000 nM
DERL-7 (IL-2 2.5 ng/mL) [18] | -1.72 | -14.1 | -7.53 | 1.51 | 6.9
IMC-1 (IL-2 20 ng/mL) [27] | -7.44 | -4.67 | -6.9 | -7.39 | 14.5
KAI3 (IL-2 2.5 ng/mL) [22] | -2.82 | 4.02 | 5.5 | 12.6 | 29.6
KHYG-1 (IL-2 2.5 ng/mL) [25] | 0.07 | -1.61 | 31.4 | 35.3 | 42.5
NK-92 (IL-2 2.5 ng/mL) [26] | -0.26 | -14.3 | 18 | 38.2 | 32.8
NK-YS (IL-2 2.5 ng/mL) [16] | -0.63 | -6.05 | 10.2 | 30.5 | 40.5
NKL (IL-2 2.5 ng/mL) [15] | -2.63 | -4.9 | 33.7 | 59.2 | 80.4
SNK-6 (IL-2 2.5 ng/mL) [24] | -4.84 | -4.27 | 10 | 4.19 | 25.4
YT (IL-2 2.5 ng/mL) [23] | 1.74 | -2.56 | 5.09 | 22.2 | 38.4
[1] | -0.13 | -7.46 | -13.6 | -8.25 | -6.11
[17] | 2.65 | 3.77 | 5.07 | -0.78 | 2.54
[19] | -3.26 | -9.74 | -11.1 | -7.66 | 2.35
[20] | -2.37 | -1.77 | 4 | -8.07 | -0.96
[21] | 6.01 | -4.44 | -0.24 | 2.22 | 15.6

Settings | drug sensitivity score
DERL-7 (IL-2 2.5 ng/mL) [5] | 0
IMC-1 (IL-2 20 ng/mL) [14] | 0.08
KAI3 (IL-2 2.5 ng/mL) [9] | 2.32
KHYG-1 (IL-2 2.5 ng/mL) [12] | 11.4
NK-92 (IL-2 2.5 ng/mL) [13] | 9.12
NK-YS (IL-2 2.5 ng/mL) [3] | 6.37
NKL (IL-2 2.5 ng/mL) [2] | 15.3
SNK-6 (IL-2 2.5 ng/mL) [11] | 1.61
YT (IL-2 2.5 ng/mL) [10] | 4.39
[4] | 0
[6] | 0
[7] | 0
[8] | 0.5
[28] | 0

Cc1c(N)nc([C@H](CC(N)=O)NC[C@H](N)C(N)=O)nc1C(=O)N[C@H](C(=O)N[C@H](C)[C@@H](O)[C@H](C)C(=O)N[C@H](C(=O)NCCc1nc(-c2nc(C(=O)NCCC[S+](C)C)cs2)cs1)[C@@H](C)O)[C@@H](OC1OC(CO)C(O)C(O)C1OC1OC(CO)C(O)C(OC(N)=O)C1O)c1cnc[nH]1 (stereo partly drawn) [Bleomycin] (max concentration tested 10000 nM)
percent inhibition of viability [%]
Settings | 1 nM | 10 nM | 100 nM | 1000 nM | 10000 nM
DERL-7 (IL-2 2.5 ng/mL) [18] | 0.04 | -2.28 | 1.21 | 29.5 | 78.2
IMC-1 (IL-2 20 ng/mL) [27] | -0.57 | -6.19 | 5.49 | 17.2 | 56.8
KAI3 (IL-2 2.5 ng/mL) [22] | -4.06 | -8.69 | 8.99 | 52.9 | 77
KHYG-1 (IL-2 2.5 ng/mL) [25] | -3.86 | -5.7 | -1.32 | 7.38 | 67.6
NK-92 (IL-2 2.5 ng/mL) [26] | -18 | -20.7 | 13.2 | 60.3 | 99
NK-YS (IL-2 2.5 ng/mL) [16] | -1.93 | -5.64 | 6.84 | 52.8 | 81.4
NKL (IL-2 2.5 ng/mL) [15] | -14.6 | -9.35 | -1.37 | 39.7 | 96.6
SNK-6 (IL-2 2.5 ng/mL) [24] | 9.29 | 19.8 | 68.8 | 97 | 101
YT (IL-2 2.5 ng/mL) [23] | -2.74 | -1.16 | 1.84 | 13.3 | 51.6
[1] | 3.15 | -1.5 | 7.63 | 34.1 | 62.5
[17] | -8.98 | 2.35 | -2.19 | 6.69 | 52.9
[19] | -11.5 | -5.49 | -1.39 | 19.4 | 73.8
[20] | -10.1 | -1.71 | 12.2 | 27.9 | 68.2
[21] | -6.18 | -0.23 | -9.89 | -6.49 | 82

Settings | drug sensitivity score
DERL-7 (IL-2 2.5 ng/mL) [5] | 8.38
IMC-1 (IL-2 20 ng/mL) [14] | 5.31
KAI3 (IL-2 2.5 ng/mL) [9] | 11.2
KHYG-1 (IL-2 2.5 ng/mL) [12] | 4.93
NK-92 (IL-2 2.5 ng/mL) [13] | 13.2
NK-YS (IL-2 2.5 ng/mL) [3] | 11.1
NKL (IL-2 2.5 ng/mL) [2] | 10.6
SNK-6 (IL-2 2.5 ng/mL) [11] | 27.6
YT (IL-2 2.5 ng/mL) [10] | 4.81
[4] | 3.94
[6] | 7.05
[7] | 6.94
[8] | 4.07
[28] | 7.53
